Data published in US20210147807A1, “METHODS FOR PURIFYING ENDODERM AND PANCREATIC ENDODERM CELLS DERIVED FROM HUMAN EMBRYONIC STEM CELLS” (HELMHOLTZ ZENTRUM MUNCHEN - DEUTSCHES FORSCHUNGSZENTRUM FUR …, priority 2017, published 2021).

What was measured:
[1] = tested on: CD177+ and CD275+ ADE subpopulations in the bulk CXCR4+ DE population; assay: Modulation of ADE differentiation efficiency by BMP/TGF-β inhibitors during endoderm induction, FACS percentage of CD177+ and CD275+ ADE; format: cell-based, human; details: for percentage of CD275+ DE differentiation: combination of 2.5 μM DMH1 and 1 μM SB431542, endoderm differentiation until D4
Protocol: I-K) Pie charts representing the percentage of CD177+ and CD275+ ADE subpopulations generated using no inhibition of pathways (I, condition 1), with high inhibition of BMP signalling using BMP inhibitor DMH1 (J, condition 2) and with moderate BMP inhibition and low TGF-β inhibition (K, condition 3).
(§1) H9, Mel1-NKX6.1-GFPand iPSCs were cultured on 1:30 diluted Geltrex (Invitogen, U.K, Cat #A1413302) in StemMACS iPS-Brew medium (Miltenyi Biotech, Germany, Cat #130-104-368). At ^˜70-80% confluency, cultures were rinsed with 1×DPBS without Mg2+ and Ca2+ (Invitrogen, Cat #14190) followed by incubation with 0.5 mM EDTA (Applichem, Cat #12604-021) for 2-3 min at 37° C. Single cells were rinsed with iPS-Brew, and spun at 1,300 r.p.m. for 3 mins. The resulting cell pellet was suspended in iPS-Brew medium supplemented with Y-27632 (10 μM; Sigma-Aldrich; MO, Cat #Y0503) and the single cell suspension was seeded at ^˜1.5-2×10 s cells/cm2 on Geltrex-coated surfaces. Cultures were fed every day with iPS-Brew medium and differentiation was initiated 24 h following seeding, resulting in ^˜90% starting confluency. The cells were differentiated towards definitive endoderm using MCDB131 medium supplemented with 0.5% BSA (Sigma, Cat #10775835001), 100 ng/ml Activin A (Peprotech, Cat #120-14-300) and 25 ng/ml WNT3A (Peprotech, Cat #315-20) for the first day. For the next 2 days, the cells were treated with MCDB131 supplemented with 0.5% BSA and 100 ng/ml Activin A. For differentiation towards β cells, Rezania, et. al; 2014 β-cell differentiation protocol was used 14. In nutshell, the cells were differentiated towards primitive gut tube with MCDB131 supplemented with 0.5% BSA, 50 ng/ml of FGF7 (Peprotech, Cat #100-19-100) and 0.25 mM Vit.C (Sigma, Cat #120-14-300) for 2 days. For differentiation towards posterior foregut, the cells were further exposed to MCDB131 medium supplemented with 1xGlutamax (Gibco, Cat #A12860-01), 2% BSA (Cat #10775835001), 0.25 mM Vit. C (Sigma, Cat #A4544-25G), 50 ng/ml FGF7, 0.25 μM SANT-1 (Sigma, Cat #54572-5MG), 1 μM retinoic acid (Sigma, Cat #R2625-50MG), 100 nM LDN193189 (Sigma, Cat #04-0074), 1:200 ITS-X (Gibco, Cat #51500-056) and 200 nM TPB (Merk Millipore, Cat #565740-1MG) for 2 days. For the WNT inhibition experiment only, 1.25 μM of IWP2 (Tocris, Cat #3533-10) was added to the cultures. The cells were then further differentiated towards pancreatic endoderm using MCDB131 supplemented with 1xGlutamax, 10 mM final glucose concentration, 2% BSA, 0.25 mM Vit.C, 2 ng/ml FGF7, 0.25 μM SANT-1, 0.1 μM retinoic acid, 200 nM LDN193189, 1:200 ITS-X and 100 nM TPB for 3 days. […]

[2] = tested on: PDX1+/NKX6.1+ PP2 cells derived from CD177+, CD275+ and CXCR4+ subpopulations; assay: Inhibition of WNT secretion during gut tube patterning, FACS for PDX1+/NKX6.1+ PP2 cells from sorted ADE subpopulations; format: cell-based, human; details: after addition of IWP2 (1.25 μM) at S2, 2D culture
Protocol: A) Overview of differentiation protocol towards pancreatic progenitors where inhibition of WNT secretion is performed at […] stage using IWP2 B-D) FACS quantification (B) and immunocytochemistry (C-D) for the percentage of cells expressing
PDX1+/NKX6.1+ generated from CD177+-, CD275+- and CXCR4+-ADE before (B, C), Scale bars, 50 μm and after (B, D) the treatment with IWP2. Scale bars, 20 μm.
as §1, with “Vit.” for “Vit. C (Sigma, Cat #A4544-25G), 50 ng/ml FGF7, 0.25 μM SANT-1 (Sigma, Cat #54572-5MG), 1 μM retinoic acid (Sigma, Cat #R2625-50MG), 100 nM LDN193189 (Sigma, Cat #04-0074), 1:200 ITS-X (Gibco, Cat #51500-056) and 200 nM TPB (Merk Millipore, Cat #565740-1MG) for 2 days. For the WNT inhibition experiment only, 1.25 μM of IWP2 (Tocris, Cat #3533-10) was added to the cultures. The cells were then further differentiated towards pancreatic endoderm using MCDB131 supplemented with 1xGlutamax, 10 mM final glucose concentration, 2% BSA, 0.25 mM Vit.C, 2 ng/ml FGF7, 0.25 μM SANT-1, 0.1 μM retinoic acid, 200 nM LDN193189, 1:200 ITS-X and 100 nM TPB for 3 days.”

[3] = standard differentiation without inhibitor 21%

SMILES | percentage of CD275+ ADE in the bulk CXCR4+ DE population ([1]; 4 μM DMH1 with 100 ng/ml AA, endoderm differentiation until D4, standard differentiation without inhibitor 21%) [%] | percentage of CD177+ ADE in the bulk CXCR4+ DE population ([1]; 4 μM DMH1 with 100 ng/ml AA, endoderm differentiation until D4, standard differentiation without inhibitor 35.5%) [%] | percentage of CD275+ DE differentiation [1, 3] [%] | percentage of PDX1+/NKX6.1+ PP2 cells derived from CD275+ ADE ([2]; without IWP2 approx. 30%) [%] | percentage of PDX1+/NKX6.1+ PP2 cells derived from CXCR4+ DE ([2]; without IWP2 approx. 45%) [%] | change in percentage of PDX1+/NKX6.1+ double positive PP2 cells in CD177+-derived PP2s ([2]; without IWP2 approx. 75%)
CC(C)Oc1ccc(-c2cnc3c(-c4ccnc5ccccc45)cnn3c2)cc1 [DMH1] | 14 | 80.5 | 54.0 | – | – | –
Cc1ccc2nc(NC(=O)CSc3nc4c(c(=O)n3-c3ccccc3)SCC4)sc2c1 [IWP2] | – | – | – | 50 | 75 | No differences were observed
NC(=O)c1ccc(-c2nc(-c3ccc4c(c3)OCO4)c(-c3ccccn3)[nH]2)cc1 [SB431542] | – | – | 54.0 | – | – | –
